Results published in ChEMBL document CHEMBL1201862, “PubChem BioAssay data set” (2004).
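These data come from cells grown in 96-well plates and exposed to compound for 48 hours at five concentrations. Here, GI50 denotes the concentration required for 50% inhibition of growth.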 Activity calls are given as the source filed them. No stated cut-off is given here; in the data, active = GI50 up to about 1.1 µM and inactive = higher.

How the values were obtained:
Assay in all cases: NCI anticancer screen, dose series, 48 h
[1] = system: HT-29
[2] = system: 786-0
[3] = system: TK-10
[4] = system: HCT-15
[5] = system: SF-295
[6] = system: SNB-75
[7] = system: COLO 205
[8] = system: SN12C
[9] = system: NCI/ADR-RES
[10] = system: HCC 2998
[11] = system: NCI-H226
[12] = system: IGROV-1
[13] = system: U-251
[14] = system: SK-OV-3
[15] = system: UACC-62
[16] = system: MCF7
[17] = system: SK-MEL-5
[18] = system: Malme-3M
[19] = system: LOX IMVI
[20] = system: HL-60

SMILES | GI50 [1] | GI50 [2] | GI50 [3] | GI50 [4] | GI50 [5] | GI50 [6] | GI50 [7] | GI50 [8] | GI50 [9] | GI50 [10] | GI50 [11] | GI50 [12] | GI50 [13] | GI50 [14] | GI50 [15] | GI50 [16] | GI50 [17] | GI50 [18] | GI50 [19] | GI50 [20]
COc1ccc(/C=C2/SC(c3ccccc3)N(NC(=O)CCCCCCCCC(=O)NN3C(=O)/C(=C\c4ccc(OC)c(OC)c4)SC3c3ccccc3)C2=O)cc1OC (configuration not stated) | 71.8 µM (inactive) | 19.6 µM (inactive) | > 100 µM (inactive) | 55.2 µM | 24.2 µM (inactive) | 35.2 µM (inactive) | > 100 µM (inactive) | > 100 µM (inactive) | 60.3 µM (inactive) | > 100 µM (inactive) | > 100 µM (inactive) | 1.03 µM (active) | 57.3 µM (inactive) | 48.6 µM (inactive) | 29 µM (inactive) | 34 µM (inactive) | – | – | – | –
Cc1c(N2C(=O)/C(=C/c3ccc(Cl)cc3)N=C2c2ccccc2)c(=O)n(-c2ccccc2)n1C | 26.6 µM (inactive) | 46.8 µM (inactive) | 20.5 µM (inactive) | 3.2 µM | 35.7 µM (inactive) | 22.5 µM (inactive) | 16 µM (inactive) | 34.1 µM (inactive) | 44.5 µM (inactive) | – | 30.7 µM (inactive) | 29 µM (inactive) | 28.2 µM (inactive) | 36.5 µM (inactive) | 21.1 µM (inactive) | 29 µM (inactive) | 17.8 µM (inactive) | 31.5 µM (inactive) | 16.7 µM (inactive) | 27.4 µM (inactive)
COC(CC1(/C=C/O[Si](C(C)C)(C(C)C)C(C)C)C(=O)N(COCC[Si](C)(C)C)c2ccccc21)OC (configuration not stated) | 96.4 µM (inactive) | 31 µM (inactive) | 74.8 µM (inactive) | 36.6 µM | 7.96 µM (inactive) | 81.8 µM (inactive) | 66.8 µM (inactive) | 45.1 µM (inactive) | > 100 µM (inactive) | 27.9 µM (inactive) | > 100 µM (inactive) | 24.5 µM (inactive) | 31.8 µM (inactive) | 20.8 µM (inactive) | 18.8 µM (inactive) | – | 23.1 µM (inactive) | – | 20.8 µM (inactive) | –
COc1ccc(CC2(O)C3CC4CCC2C4C3)cc1 (configuration not stated) | 58.1 µM (inactive) | > 100 µM (inactive) | 69.3 µM (inactive) | > 100 µM | 42.6 µM (inactive) | 48.9 µM (inactive) | 74.3 µM (inactive) | 77.4 µM (inactive) | 44.7 µM (inactive) | – | 88.1 µM (inactive) | > 100 µM (inactive) | > 100 µM (inactive) | > 100 µM (inactive) | > 100 µM (inactive) | 65.6 µM (inactive) | 31.9 µM (inactive) | > 100 µM (inactive) | > 100 µM (inactive) | 51.1 µM (inactive)
O=C(Nc1ccn(C2CC(O)C(COC(c3ccccc3)(c3ccccc3)c3ccccc3)O2)c(=O)n1)c1ccccc1 (configuration not stated) | 1.71 µM (inactive) | 1.98 µM (inactive) | – | 2.59 µM | 1.96 µM (inactive) | 4.66 µM (inactive) | 2.09 µM (inactive) | 1.89 µM (inactive) | 2.46 µM (inactive) | 7.36 µM (inactive) | 11 µM (inactive) | 2.9 µM (inactive) | 3.5 µM (inactive) | 11.5 µM (inactive) | 5.98 µM (inactive) | 2.43 µM (inactive) | 2.33 µM (inactive) | 2.61 µM (inactive) | – | 2.61 µM (inactive)
CCCCCCCCCCCCOCCOCCOCCOCCOCCOCC(=O)NC(Cc1ccccc1)C(=O)Oc1ccc([N+](=O)[O-])cc1 (configuration not stated) | 33.4 µM (inactive) | 34.9 µM (inactive) | 38.3 µM (inactive) | 37 µM | 39.1 µM (inactive) | 27 µM (inactive) | 15.8 µM (inactive) | – | 37.5 µM (inactive) | – | 59 µM (inactive) | 44.3 µM (inactive) | 34.2 µM (inactive) | 64.9 µM (inactive) | 21.8 µM (inactive) | 38.1 µM (inactive) | 31.8 µM (inactive) | 29.6 µM (inactive) | 29.8 µM (inactive) | 21.9 µM (inactive)
COC1O[C@H]2CCN(C(=O)OCc3ccccc3)[C@H]2[C@H]1OCc1ccccc1 (some centres not stated) | 40.9 µM (inactive) | > 100 µM (inactive) | > 41.4 µM (inactive) | 36.5 µM | 49.9 µM (inactive) | 41.9 µM (inactive) | 70.3 µM (inactive) | > 100 µM (inactive) | – | 47.6 µM (inactive) | 78 µM (inactive) | 49.5 µM (inactive) | 45.9 µM (inactive) | 23.6 µM (inactive) | 21.5 µM (inactive) | – | 24.1 µM (inactive) | 45.6 µM (inactive) | 56.6 µM (inactive) | 28.4 µM (inactive)
COC(=O)c1s/c(=N\C(=S)N(C)C)n(-c2ccccc2)c1C(=O)OC | 57 µM (inactive) | > 100 µM (inactive) | > 100 µM (inactive) | > 100 µM | > 100 µM (inactive) | 52.2 µM (inactive) | > 100 µM (inactive) | > 100 µM (inactive) | – | > 100 µM (inactive) | > 100 µM (inactive) | > 100 µM (inactive) | > 100 µM (inactive) | > 100 µM (inactive) | > 100 µM (inactive) | – | > 100 µM (inactive) | > 100 µM (inactive) | > 100 µM (inactive) | 32.6 µM (inactive)
CC1(O)C=CC(=O)C=C1 | 38.4 µM (inactive) | 20.7 µM (inactive) | 44.1 µM (inactive) | 16 µM | 57.1 µM (inactive) | > 56.1 µM (inactive) | 34.8 µM (inactive) | 52.7 µM (inactive) | – | > 71.6 µM (inactive) | > 100 µM (inactive) | 26.8 µM (inactive) | 21.9 µM (inactive) | > 100 µM (inactive) | 18.5 µM (inactive) | – | > 55 µM (inactive) | 20.3 µM (inactive) | 20.4 µM (inactive) | 16.4 µM (inactive)
COC(=O)c1cc2c3c(cc(N(C)C)c2[nH]1)N(C(=O)c1cc2cc(OC)c(OC)c(OC)c2[nH]1)CC3CCl (configuration not stated) | 0.25 µM (active) | < 0.0025 µM (active) | 0.00968 µM (active) | 0.00468 µM | 0.00379 µM (active) | 0.0042 µM (active) | 0.00557 µM (active) | 0.0114 µM (active) | 0.00392 µM (active) | 0.00948 µM (active) | 0.00362 µM (active) | < 0.0025 µM (active) | < 0.0025 µM (active) | 0.00738 µM (active) | 0.00558 µM (active) | < 0.0025 µM (active) | 0.00333 µM (active) | 0.00463 µM (active) | – | –
CC(=O)c1cc2sc3ccccc3c2[nH]1 | > 100 µM (inactive) | > 100 µM (inactive) | > 100 µM (inactive) | > 100 µM | > 100 µM (inactive) | – | > 100 µM (inactive) | > 100 µM (inactive) | > 100 µM (inactive) | > 100 µM (inactive) | – | – | > 100 µM (inactive) | > 100 µM (inactive) | 26.7 µM (inactive) | > 100 µM (inactive) | > 100 µM (inactive) | > 100 µM (inactive) | – | –
CCN(CC)CCNC(=O)c1cc2cc(NC(=O)c3cc4cc(NC(=O)c5cc6cc(N)ccc6[nH]5)ccc4[nH]3)ccc2[nH]1 | > 100 µM (inactive) | > 100 µM (inactive) | > 100 µM (inactive) | > 100 µM | > 100 µM (inactive) | > 100 µM (inactive) | > 100 µM (inactive) | > 100 µM (inactive) | > 100 µM (inactive) | > 100 µM (inactive) | > 100 µM (inactive) | > 100 µM (inactive) | > 100 µM (inactive) | > 100 µM (inactive) | > 100 µM (inactive) | – | > 100 µM (inactive) | > 100 µM (inactive) | > 100 µM (inactive) | –
NC(CCCCNCc1ccccc1)C(=O)O (configuration not stated) | > 100 µM (inactive) | > 100 µM (inactive) | > 100 µM (inactive) | > 100 µM | > 100 µM (inactive) | > 100 µM (inactive) | > 100 µM (inactive) | > 100 µM (inactive) | – | > 100 µM (inactive) | > 100 µM (inactive) | > 100 µM (inactive) | > 100 µM (inactive) | > 100 µM (inactive) | > 100 µM (inactive) | – | > 100 µM (inactive) | > 100 µM (inactive) | > 100 µM (inactive) | > 100 µM (inactive)
COc1ccc(C(=O)/C=C/S/C(=N/C#N)SC)cc1 | 19.8 µM (inactive) | 19 µM (inactive) | 20.8 µM (inactive) | 13.8 µM | 28 µM (inactive) | 27.9 µM (inactive) | 19.7 µM (inactive) | 24.4 µM (inactive) | 21.3 µM (inactive) | – | 16.5 µM (inactive) | 21.8 µM (inactive) | 16.9 µM (inactive) | 26.2 µM (inactive) | 20 µM (inactive) | 18.4 µM (inactive) | 21.8 µM (inactive) | 24.5 µM (inactive) | – | 16.6 µM (inactive)
CN(C)CN1C(=O)/C(=N\n2c(S)nnc2-c2ccncc2)c2ccccc21 | 22.2 µM (inactive) | 16.9 µM (inactive) | 41.9 µM (inactive) | 28.1 µM | > 100 µM (inactive) | 38.5 µM (inactive) | 38.3 µM (inactive) | 35.2 µM (inactive) | 41.9 µM (inactive) | – | > 100 µM (inactive) | 38.5 µM (inactive) | 38.8 µM (inactive) | 31.7 µM (inactive) | 42.4 µM (inactive) | 31.3 µM (inactive) | 39.4 µM (inactive) | > 100 µM (inactive) | 22.9 µM (inactive) | 11.7 µM (inactive)
